In patent publication US7084141B2, “Inhibitors of macrophase migration inhibitory factor and methods for identifying the same” (Avanir Pharmaceuticals, priority 2001, dated 2006):

Molecular target: T1, MIF produced by THP-1 cells (Homo sapiens, UniProt P14174)
T1 construct: a test cell may express the MIF naturally (e.g., THP-1 cells); endogenous in cells; host or cells: THP-1 cells stimulated with LPS
T1 sequence (P14174 2-115 limits assumed): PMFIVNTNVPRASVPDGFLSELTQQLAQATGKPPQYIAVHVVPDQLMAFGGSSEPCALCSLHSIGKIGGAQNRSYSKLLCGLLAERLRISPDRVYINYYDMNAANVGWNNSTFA
Assay: High throughput screening ELISA for MIF inhibitors (THP-1 supernatant / pre-conditioned media incubated with inhibitor)
Assay type: binding
Settings: absence of cells, 30 minutes at 37° C.
Experimental: Alternatively, ELISA may be preferred to detect and quantify the amount of MIF in cell supernatants. ELISA is preferred for detection in high throughput screening. Briefly, 96-well plates are coated with an anti-MIF antibody or anti-tag antibody, washed, and blocked with 2% BSA. Cell supernatant is then added to the wells. Following incubation and washing, a second antibody (e.g., to MIF) is added. The second antibody may be coupled to a label or detecting reagent, such as an enzyme or to biotin. Following further incubation, a developing reagent is added and the amount of MIF determined using an ELISA plate reader. […]
In the previous experiment (FIG. 3), the ability of compound 7e to modulate antibody binding to MIF protein was analyzed in the presence of LPS-stimulated THP1 cells. […] Six hours later, the conditioned media was removed, clarified of cell debris and the amount of MIF determined to be 22 ng/ml. […] The level of detectable MIF was then determined by ELISA using the monoclonal anti-MIF antibody for detection. […]
The high throughput screening assay for MIF inhibitors is performed in a 96-well format using MIF produced by THP-1 cells and is performed as follows. […] The amount of MIF is calculated by interpolation from an MIF standard curve.

Cn1c(=O)c([N+](=O)[O-])c(N2CCN(C(=O)c3ccco3)CC2)c2ccccc21 [compound 7e]
MIF specific ELISA signal in pre-conditioned media: rapid loss of MIF specific ELISA signal
